Measurements reported in patent publication US6849624B2, “Aromatic and heteroaromatic substituted amides” (Hoffmann-La Roche Inc., priority 2001, dated 2005).

What was measured:
[1] = target: T1, NK1 receptor (Meriones unguiculatus, UniProt Q5DUB1); experiment: foot-tapping behavior induced in Gerbils by i.c.v. injection of an NK1 receptor agonist; assay type: in vivo; conditions: Gerbil; for dose calculated to inhibit 50% of the foot-tapping behavior: oral administration; for total plasma concentration required to completely block the foot-tapping behavior: total plasma level
T1 construct: from tissue; host or cells: living gerbils (brain, i.c.v. agonist injection)
T1 sequence (Q5DUB1 whole entry): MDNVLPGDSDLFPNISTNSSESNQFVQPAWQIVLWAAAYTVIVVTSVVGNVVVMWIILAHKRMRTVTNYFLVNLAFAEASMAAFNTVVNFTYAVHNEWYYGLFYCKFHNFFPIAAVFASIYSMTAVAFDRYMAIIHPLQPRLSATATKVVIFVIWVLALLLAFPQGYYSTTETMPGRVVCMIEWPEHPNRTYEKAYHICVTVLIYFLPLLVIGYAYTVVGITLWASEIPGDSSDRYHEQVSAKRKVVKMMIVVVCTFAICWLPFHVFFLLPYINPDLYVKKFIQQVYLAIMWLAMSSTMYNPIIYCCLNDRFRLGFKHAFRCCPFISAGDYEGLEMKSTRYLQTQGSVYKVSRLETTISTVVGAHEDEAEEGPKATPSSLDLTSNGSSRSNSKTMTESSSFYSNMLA
Method: In vivo 2-(3,5-bis-trifluoromethyl-phenyl)-N-[6-(1,1-dioxo-1λ^6-thiomorpholin-4-yl)-4-o-tolyl-pyridin-3-yl]-N-methyl-isobutyramide antagonizes foot-tapping behavior induced in Gerbils with intracerebroventricular (i.c.v.) injections of an NK1 receptor agonist. The dose for this compound calculated to inhibit 50% of the foot-tapping behavior following oral administration was 0.8 mg/kg. […] Similarly, 2-(3,5-bis-trifluoromethyl-phenyl)-N-[6-(1,1-dioxo-1λ^6-thiomorpholin-4-yl)-4-(4-fluoro-2-methyl-phenyl)-pyridin-3-yl]-N-methyl-isobutyramide also antagonized NK1 agonist-induced foot-tapping in Gerbils. The dose for this compound calculated to inhibit 50% of the foot-tapping behavior following oral administration was 0.1 mg/kg. The total plasma levels that are required to completely antagonize this behavior are less than 10 ng/ml.

[2] = target: T2, human NK1 receptor (Homo sapiens, UniProt P25103); experiment: substance P induced Ca2+ influx in CHO cells expressing recombinant human NK1 receptor (FLIPR); assay type: cell-based; conditions: increasing concentrations, CHO cells with recombinant human NK1 receptor
T2 construct: expressed in transfected cells; host or cells: CHO cells (Semliki virus expression system)
T2 sequence (P25103 whole entry): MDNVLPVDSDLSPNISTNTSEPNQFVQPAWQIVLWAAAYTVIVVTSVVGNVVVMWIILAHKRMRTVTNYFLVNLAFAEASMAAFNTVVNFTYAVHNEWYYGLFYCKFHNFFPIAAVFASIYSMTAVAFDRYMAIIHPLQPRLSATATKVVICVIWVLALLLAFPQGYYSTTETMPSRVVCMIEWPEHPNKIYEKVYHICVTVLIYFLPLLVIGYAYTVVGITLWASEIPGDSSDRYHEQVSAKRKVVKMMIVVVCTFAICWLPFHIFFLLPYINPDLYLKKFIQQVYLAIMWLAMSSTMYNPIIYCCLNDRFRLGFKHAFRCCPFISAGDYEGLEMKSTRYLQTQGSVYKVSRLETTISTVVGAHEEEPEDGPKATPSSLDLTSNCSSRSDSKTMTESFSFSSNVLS
Text: The activity in vitro was examined by studying its effect on substance P induced Ca^2+ influxes in CHO cells expressing the recombinant human NK1 receptor. In these cells, substance P causes a concentration dependent influx of Ca^2+ which can be measured using FLIPR technology.

[3] = target: T2, human NK1 receptor; experiment: [3H]substance P binding to human NK1 receptor in transfected CHO cells; conditions: recombinant human NK1 receptor in CHO cells, [3H]substance P 0.6 nM; read-out: affinity (pKi) for the human NK1 receptor (converted)
Method: The affinities of the compounds 2-(3,5-bis-trifluoromethyl-phenyl)-N-[6-(1,1-dioxo-1λ^6-thiomorpholin-4-yl)-4-o-tolyl-pyridin-3-yl]-N-methyl-isobutyramide and 2-(3,5-bis-trifluoromethyl-phenyl)-N-[6-(1,1-dioxo-1λ^6-thiomorpholin-4-yl)-4-(4-fluoro-2-methyl-phenyl)-pyridin-3-yl]-N-methyl-isobutyramide for the human NK1 receptor were evaluated in Chinese Hamster Ovary (CHO) cells transfected with the human NK1 receptor (using the Semliki Virus expression system) and radiolabelled with [^3H]substance P (final concentration 0.6 nM). Binding assays were performed in HEPES buffer (50 mM, pH 7.4) containing BSA (0.04%), leupeptin (8 μg/ml), MnCl2 (3 mM) and phosphoramidon (2 μM). Binding assays consisted of 250 μl of membrane suspension (1.25×10^5 cells/assay tube), […] of buffer of displacing agent and 125 μl of [^3H] substance P. Displacement curves were determined with at least seven concentrations of the compound. The assay tubes were incubated for 60 min at room temperature after which time the tube contents were rapidly filtered under vacuum through GF/C filters presoaked for 60 min with PEI (0.3%) with 2×2 ml washes of HEPES buffer (50 mM, pH 7.4). The radioactivity retained on the filters was measured by scintillation counting. All assays were performed in triplicate in at least 2 separate experiments. […]

[4] = pharmacokinetic parameters in dogs; conditions: dog, in vivo; for Vd: read-out: volume of distribution
Text: (§1) The pharmacokinetic parameters of both compounds have been evaluated in both rats and dogs.

[5] = pharmacokinetic parameters in rats; conditions: rat, in vivo; for bioavailability: po; for half-life: read-out: terminal half-life (converted); for Vd: read-out: volume of distribution
Text: as §1

melting point [°C]	dose calculated to inhibit 50% of the foot-tapping behavior [1] [mg/kg]	total plasma concentration required to completely block the foot-tapping behavior [1]	Ki [3] [nM]	clearance [4] [mL/min/kg]	half-life [4] [h]	Vd [4] [L/kg]	clearance [5] [mL/min/kg]	bioavailability [5] [%]	half-life [5] [h]	Vd [5] [L/kg]	SMILES	effect on substance P induced Ca2+ influx [2]
200 to 201	0.8	10 ng/mL	1.26	5	8	4	4.7	18	9	4	Cc1ccccc1-c1cc(N2CCS(=O)(=O)CC2)ncc1N(C)C(=O)C(C)(C)c1cc(C(F)(F)F)cc(C(F)(F)F)c1 [2-(3,5-Bis-trifluoromethyl-phenyl)-N-[6-(1,1-dioxo-1λ^6-thiomorpholin-4-yl)-4-o-tolyl-pyridin-3-yl]-N-methyl-isobutyramide]	inhibited the substance P induced Ca^2+ influx
–	0.1	less than 10 ng/ml	0.316	1.4	56	1.5	0.3 to 1.2	61	21	0.7	Cc1cc(F)ccc1-c1cc(N2CCS(=O)(=O)CC2)ncc1N(C)C(=O)C(C)(C)c1cc(C(F)(F)F)cc(C(F)(F)F)c1 [2-(3,5-Bis-trifluoromethyl-phenyl)-N-[6-(1,1-dioxo-1λ^6-thiomorpholin-4-yl)-4-(4-fluoro-2-methyl-phenyl)-pyridin-3-yl]-N-methyl-isobutyramide]	inhibited the substance P induced Ca^2+ influx
